Measured values published in US20250339492A1, “METHOD OF TREATING OR PREVENTING AN ADVERSE SECONDARY NEUROLOGICAL OUTCOME FOLLOWING A HAEMORRHAGIC STROKE” (CSL BEHRING AG, priority 2021, published 2025).
“Also recorded” adds a separate entry of the source.

B1: heme:Hx: heme-hemopexin complex (1 mM) injected into striatum (protein, UniProt P02790 24-462, looked up)
Hemopexin: TPLPPTSAHGNVAEGETKPDPDVTERCSDGWSFDATTLDDNGTMLFFKGEFVWKSHKWDRELISERWKNFPSPVDAAFRQGHNSVFLIKGDKVWVYPPEKKEKGYPKLLQDEFPGIPSPLDAAVECHRGECQAEGVLFFQGDREWFWDLATGTMKERSWPAVGNCSSALRWLGRYYCFQGNQFLRFDPVRGEVPPRYPRDVRDYFMPCPGRGHGHRNGTGHGNSTHHGPEYMRCSPHLVLSALTSDNHGATYAFSGTHYWRLDTSRDGWHSWPIAHQWPQGPSAVDAAFSWEEKLYLVQGTQVYVFLTKGGYTLVSGYPKRLEKEVGTPHGIILDSVDAAFICPGSSRLHIMAGRRLWWLDLKSGAQATWTELPWPHEKVDGALCMEKSLGPNSCSANGPGLYLIHGPNLYCYSDVEKLNAAKALPQPQNVTSLLGCTH
modifications: heme complex
notes: heme-hemopexin complex (1 mM) injected into striatum

How the values were obtained:
[1] = test system: C57BL/6J mice; test: striatal injection model, MRI (T2, ASL, DWI); type: in vivo; conditions: for quantification of edema size and perfusion: 24, 48 and 72 hours after striatal injection, n=4 per group, FIG. 14; for radiological changes (T2, ADC map, ASL): 24 hours after striatal injection, FIG. 13
Text: (§1) Wild-type male C57BL/6J mice (10-12 weeks) were obtained from Charles River (Sulzfeld, Germany) and maintained at the animal facility of the University of Zurich (LASC) and treated in accordance with the guidelines of the Swiss Federal Veterinary Office.
(§2) Mice were anesthetized with isoflurane (4-5% for induction, 1-2% for maintenance; Baxter Healthcare Co. Deerfield, IL, USA) evaporated in 100% oxygen. Throughout the surgical procedure, body temperature was monitored with a rectal probe and maintained constant with the use of an electronic thermostat-controlled warming blanket. Anesthetized mice were placed in a motorized stereotaxic frame (Stoelting, Dublin, Ireland) and a 1 cm long midline skin incision was made. After removal of the soft tissue covering the skull, the frame referenced to bregma and a small burrhole was drilled above the entry point for the target. Then a 33G needle was slowly advanced (0.1 mm/s) into the striatum (bregma coordinates: 2 mm ML, 0.5 mm AP, 3.5 mm DV) followed by injection of 10 μL heme-albumin (1 mM), haptoglobin (5 mM) (protein control group) or heme-hemopexin (1 mM) with an infusion rate of 100 nl/s. The needle was left in place for 5 minutes, then removed slowly and the skin incision was closed with a suture. After the surgical procedure, the animals were placed in a heated wake up box and monitored until they were fully recovered and could be transferred back to their homecage.
Mice were anesthetized with isoflurane (4-5% for induction, 1-2% for maintenance; Baxter Healthcare Co. Deerfield, IL, USA) evaporated in 100% oxygen. Throughout the imaging procedure, body temperature was monitored with a rectal probe and maintained constant with the use of a warming blanket and respiratory rate was recorded by plethysmography. Mice were placed into a 7 T small animal MRI scanner (Brucker, Germany). T2, ASL and DWI images were recorded according to a standardized protocol.

[2] = test system: C57BL/6J mice; test: striatal injection model, behavioural testing (open field, rotarod, beam walk); type: in vivo; conditions: 24 hours after striatal injection of 10 μL, 1 mM; n=6 per group; FIG. 12
Text: as §1
as §2, with “The needle was left in place for 5 minutes, then removed slowly and the skin incision was closed with a suture.” left out
The open field exploration tests were conducted in four identical square arenas (40×40×35 cm high) made of opaque acrylic glass, located in a testing room under diffused lighting (approximately 35 Ix as measured in the center of the arenas). […] The total distance moved during 10 minutes (in cm), beginning after a 5 minutes acclimatization phase was measured.
For the rotarod behavioural testing the mice are placed on a rotating cylinder and therefore forced to walk. […] The time until the mice fall off the cylinder is measured.
For discrete neurological deficits, mice were subjected to a beam walk test. […] During the assessment, the motor function was scored by two investigators blinded to treatment.

[3] = test system: porcine basilar arteries; test: vascular function assay, porcine basilar arteries pre-contracted with PGF2α
Protocol: The vascular function assay (FIG. 7E) was performed using fresh porcine basilar arteries obtained from a local abattoir (n=12). Vessels were pre stretched to reach 8 the optimal passive pretension as previously published (Hugelshofer et al., 2020). Then, 10 μM prostaglandin F2α (PGF2α; Sigma, Buchs, Switzerland) was used as a pre-contracting agent. In order to determine the maximum possible tension in absence of endogenous NO, L-N5-(1-Iminoethyl) ornithine hydrochloride (L-NIO; Sigma-Aldrich, Saint Louis, US-MO) at a concentration of 10 μM was added at the end of the experiment. The recorded tension was normalized to the individual NO reserve capacity of the respective vessel, i.e. the baseline tension after addition of PGF2α (0%) and the tension after addition of L-NIO at the end of the experiment (100%) (FIG. 7F). Damaged vessels with a continuous loss in tension over the duration of the experiment, resulting in a PGF2α max/L-NIO max ratio below 0.7, were excluded from the analysis (FIG. 7F). A first series of experiments was conducted to evaluate the vasoconstrictive potential of the patient CSF in the high-risk phase for SAH-SBI after aSAH and to assess the specific role of oxyHb in this process. […] In a second series of experiments, the influence of an increasing exposure to Hb on the vascular tension was assessed. […]

[4] = biological target: T1, CSF-Hb (Homo sapiens, UniProt P68871+P69905); test: oxidative potential of patient CSF after aSAH (TBARS, MDA formation) with addition of Hp or hemopexin; type: biochemical; conditions: added at equimolar concentration, patient CSF of high risk phase week 0.5-2, FIG. 5D
T1 construct: from tissue; host or cells: cerebrospinal fluid of patients after aSAH (high-risk phase, week 0.5-2)
Protocol: Hb used in ex vivo experiments was purified from expired human blood concentrates as previously described (Elmer et al., 2009). Hb concentrations were determined by spectral deconvolution as described above and are given as molar concentrations of total heme (1 M Hb tetramer is equivalent to 4 M heme). Hx was used in equimolar concentration to the concentration of heme measured in the test sample. For all Hb used in these studies, the fraction of ferrous oxyHb (HbFe2+O2) was always greater than 98% as determined by spectrophotometry. Purified haptoglobin (phenotype 1-1) and hemopexin from human plasma was obtained from CSL Behring.
The oxidative potential of CSF samples was quantified by measuring the formation of malondialdehyde (MDA) as the final product of lipid peroxidation after incubation with a well-defined reconstituted lipoprotein (rLP, obtained from CSL Behring, Bern, Switzerland) (FIG. 7G). Using a 96-well plate, 25 μL CSF were mixed with 5 μL rLP (3 mg/mL) and incubated at 37° C. for 24 hours. Subsequently, the concentration of MDA was measured using a thiobarbituric acid reactive substance (TBARS) assay. In short 125 μL of 750 mM trichloroacetic acid in 1 M HCl was added to the samples, followed by short vortexing and subsequent addition of 100 μL 25 mM 2-thiobarbituric acid in 1 M NaOH.
After an incubation period at 80° for 60 min, the TBARS in the supernatant were quantified. For absolute quantification of MDA, the absorption at 600 nm was subtracted from the absorption at 532 nm and the concentration was calculated with the molar extinction 9 coefficient of […]. To achieve a more sensitive but relative quantification, the fluorescence emission was measured at 550 nm, using 510 nm as excitation wavelength.

[5] = formation of heme:Hx complexes in the CSF; conditions: cell-free heme within the subarachnoid space
[6] = read-out: ability to bind heme with high affinity (Kd); cited from earlier work

T1 sequence (P69905 2-142 limits assumed): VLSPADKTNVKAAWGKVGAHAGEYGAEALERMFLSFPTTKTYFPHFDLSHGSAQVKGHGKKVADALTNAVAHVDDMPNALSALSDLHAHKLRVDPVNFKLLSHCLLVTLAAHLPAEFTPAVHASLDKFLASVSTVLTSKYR
T1 sequence (P68871 2-147 limits assumed): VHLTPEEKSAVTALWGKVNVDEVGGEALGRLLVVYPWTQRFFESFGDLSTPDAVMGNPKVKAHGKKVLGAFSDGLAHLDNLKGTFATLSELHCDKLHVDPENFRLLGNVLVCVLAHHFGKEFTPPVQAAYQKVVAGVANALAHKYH

| Molecule | quantification of edema size and perfusion [1] | neurological function (open-field, rotarod, beamwalk testing) [2] | MDA formation (lipid peroxidation) [4] | also measured |
| --- | --- | --- | --- | --- |
| C=CC1=C(C)c2cc3[n-]c(cc4[n-]c(cc5nc(cc1n2)C(C)=C5C=C)c(C)c4CCC(=O)O)c(CCC(=O)O)c3C.[Fe+2] [heme] | formation of a cerebral edema and a regionally decreased perfusion | impaired neurological function; also recorded: impaired neurobehavioral function |  | radiological changes (T2, ADC map, ASL) [1]: perilesional edema, a diffusion restriction in the ADC map and a focal perfusion deficit |
| oxyHb: Hb purified from expired human blood concentrates; fraction of ferrous oxyHb greater than 98% [reference compound] |  |  |  | oxyHb concentration reaching maximum contraction ([3]; FIG. 4A): 10^−5 M |
| Hp1-1: Purified haptoglobin (phenotype 1-1) from human plasma obtained from CSL Behring |  |  | effectively attenuated MDA formation | MDA formation (lipid peroxidation) ([4]; listed as haptoglobin): partial inhibition; contractile force of basilar arteries (anti-vasospastic effect) ([3]; Hb dose escalation with equimolar haptoglobin, repeated measures ANOVA p<0.001, FIG. 5C): significantly attenuated the contractile force |
| hemopexin: Purified hemopexin from human plasma obtained from CSL Behring; heme-scavenger protein |  | abrogates the heme-mediated impairment of neurological function | even stronger attenuation of MDA formation; also recorded: virtually blocked the formation of MDA; also recorded: surpassed the antioxidant function of haptoglobin | period of exposure sufficient to form detectable heme:Hx complexes in the CSF [5]: at least 2 minutes; Kd [6]: < 1 pM |
| B1 | absent | no impairment in neurobehavioral activity |  | radiological changes (T2, ADC map, ASL) ([1]; listed as heme:Hpx): only minor radiological changes; also recorded: largely absent |
